Assay results from patent US10548895B2, “Ligands that target Plasmodium sporozoite binding sites on CD81 and therapeutic methods using them” (American University In Cairo (AUC), priority 2014, dated 2020).
“Also recorded” adds a separate entry of the source.

Key:
[1] = biological target: T1, native CD81 on Raji cells (Homo sapiens, UniProt P60033); test: Antibody neutralizing assay: inhibition of JS-81 anti-CD81 antibody binding on Raji cells (FACS); type: cell-based; details: Raji cells, read-out: Inhibition of JS-81 Binding (%); for inhibition at 50 µM: 50 μM ligand; for inhibition at 100 µM: 100 μM ligand; for inhibition at 400 µM: 400 μM ligand
T1 construct: endogenous in cells; host or cells: Raji cells (human B cell line)
T1 sequence (P60033 1-236): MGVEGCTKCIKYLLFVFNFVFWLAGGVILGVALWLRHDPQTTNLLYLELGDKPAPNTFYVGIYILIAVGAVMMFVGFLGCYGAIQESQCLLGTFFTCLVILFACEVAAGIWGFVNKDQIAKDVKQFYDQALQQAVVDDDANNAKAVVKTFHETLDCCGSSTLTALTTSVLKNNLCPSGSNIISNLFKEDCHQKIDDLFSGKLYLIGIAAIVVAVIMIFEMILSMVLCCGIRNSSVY
Procedure: For antibody neutralization assay Raji cells were used, a human B cell line that expressed high amounts of CD81 on the surface (data not shown), Cells were grown in RPMI medium (10% FCS, 1% penicillin/streptomycin, 1% L-glutamine, 1% non-essential amino acids, 1% sodium pyruvate, pH 7.4, at 37° C. with 5% CO2). 2×10^5 cells were incubated with or without different concentrations (50 μM, 100 μM, 400 μM and 1 mM) of indicated inhibitor for 20 min at room temperature, subsequently 1 ul (16 ng/μl) of FITC-labeled anti CD81 antibody (BD Pharmingen, 551108) was added to the cells and incubated for 20 min (antibody titration was performed to obtain a working dilution range, data not shown). Cells were washed and analyzed by FACS (BD FACSCalibur, software: Cell Quest Pro). Mean Fluorescence Intensity MFI was calculated using Flowjo software (TreesStar, www.flowjo.com).

[2] = biological target: T2, CD81-LEL (Homo sapiens, UniProt P60033); test: Surface plasmon resonance binding of ligands to immobilized CD81-LEL; details: SPR; for Binding (change in response units): 3 min association; for Dissociation 1 (change in response units) / Dissociation 2 (change in response units): dissociation interval
T2 construct: A recombinant form of the CD81-LEL protein with a GST tag; gift of Dr. Shoshana Levy, Stanford University
T2 sequence (P60033 113-201 limits assumed): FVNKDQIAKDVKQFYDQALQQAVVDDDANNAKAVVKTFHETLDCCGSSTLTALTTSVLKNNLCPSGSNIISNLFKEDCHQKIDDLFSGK
Procedure: SPR analysis was performed using a Biacore T200 workstation (GE Healthcare, NJ, USA). A recombinant form of the CD81-LEL protein with a GST tag (generously provided by Dr. Shoshana Levy, Stanford University) was used to confirm, using an established experimental technique, the binding of several ligands to the protein. Briefly, 10 μM CD81-LEL-GST diluted into 10 mM Na-Acetate buffer pH 4.5 was immobilized for 15 min at a flow speed of 5 μl/min onto a CM5 sensor chip using amine-coupling (EDC-NHS), Approximately 20,000 RU of protein were immobilized on the chip. The ligands were prepared as 600 μM solutions in PBS-0.05% Tween-80 (the running buffer) and they were introduced to the protein using a pre-programmed 3 minute association and 1 minute dissociation interval.
SPR analysis was performed using a Biacore T100 workstation (GE Healthcare, NJ, USA). […] Approximately 20,000 RU of protein were immobilized on the chip. The ligands were prepared as 200 uM solutions in PBS-1% DMSO (the running buffer) and they were introduced to the protein using a pre-programmed 3 min association and 1 min dissociation interval.

[3] = test system: Plasmodium berghei; test: Sporozoite infection assay, P. berghei in Hepa1-6 cells; type: cell-based; details: for effect on infection (in words): P. berghei, Hepa1-6 cells
[4] = test system: Plasmodium falciparum; test: Sporozoite invasion assay, P. falciparum in HepG2-CD81 cells; type: cell-based
Procedure: (§1) Anopheles stephensi mosquitoes were fed on mice infected with Plasmodium yoelii 17XNL parasites. On day 14 post bloodmeal, salivary glands were harvested, homogenized, sporozoite number was determined using a hemocytometer and the indicated number of sporozoites was added to cell monolayers, Plasmodium falciparum sporozoites were generated by membrane feeding An. stephensi mosquitoes using gametocyte cultures generated in vitro.
(§2) HepG2-CD81 (14) cells were maintained in DMEM supplemented with 10% fetal calf serum and 1 mM glutamine (DMEM/FCS), mAb 2E6 was used for development assays and is directed against Plasmodium Hsp 70 (15) and mAb 2A10 is directed against the repeat region of P. falciparum CSP and was used for invasion assays.
(§3) 5×10^5 HepG2-CD81 cells were plated on collagen coated Lab-Tek wells and allowed to adhere overnight. The following day, cells were preincubated with 400 uM of compound for 30 minutes at 37° C. Controls were pre-incubated with DMSO at the same concentration in which it was found in the compound solutions. 10^5 sporozoites were added to each well and in the case of P. falciparum, incubated for 1.5 hours and scored for invasion whereas in the case of P. yoelii, incubated for 44 hours and scored for exoerythrocytic stages.

[5] = test system: Plasmodium berghei; test: Sporozoite infection assay, P. berghei in HepG2 cells; type: cell-based
[6] = test system: Plasmodium yoelii; test: Sporozoite infection assay, P. yoelii in Hepa1-6 cells; type: cell-based; details: for effect on infection (in words): P. yoelii, Hepa1-6 cells
[7] = test system: Plasmodium yoelii; test: Sporozoite development assay, P. yoelii in HepG2-CD81 cells; type: cell-based; details: for effect on infection (in words): P. yoelii, HepG2-CD81
Procedure: as §1, §2, §3

Row | SMILES | inhibition at 50 µM [1] | inhibition at 100 µM [1] | inhibition at 400 µM [1] | Binding (change in response units) [2] | Dissociation 1 (change in response units) [2] | Dissociation 2 (change in response units) [2] | effect on infection (in words) [3] | effect on infection (in words) ([4]; P. falciparum) | effect on infection (in words) [5] | effect on infection (in words) [6] | effect on infection (in words) [7] | Percent Infection ([3]; Hepa1-6 Cells, Plasmodium berghei) | Percent Infection ([4]; HepG2-CD81, Plasmodium falciparum, 400 uM compound) | Percent Infection ([6]; Hepa1-6 Cells, Plasmodium yoelii) | Percent Infection ([7]; HepG2-CD81, Plasmodium yoelii, 400 uM compound)
1 | O=C(O)/C(=C\c1ccccc1)c1ccccc1 [Ligand 40614, 2,3-diphenylprop-2-enoate] | 0% | 8% | 26% | 52.5 response units | 50.8 response units | 43 response units | enhancing development | wasn't found to enhance infection | enhancing development | enhancing development | enhance the infection | – | – | – | –
2 | Cc1cc(C)c(N)c(C(=O)O)c1 [Ligand 90444, 2-amino-3,5-dimethylbenzoate] | 0% | 0% | 24% | −1.7 response units | 13.1 response units | 5.6 response units | didn't inhibit | – | – | didn't inhibit | inhibit; also recorded: inhibitory effect | 95.6% | 98.7% | 222% | 44.3%
